Reference: patent US8507488B2, “Fused nitrogen containing heterocycles and compositions thereof as kinase inhibitors” (IRM LLC, priority 2008, dated 2013)
Values belong to the compound of their own block, whether it stands above or below them.

Legend:
[1] = target: T1, Tel-TrkA (Homo sapiens, UniProt P04629); experiment: Inhibition of proliferation of Ba/F3 cells expressing Tel-TrkA (BaF3/Tel-TrkA, luciferase/Bright Glo readout); format: cell-based; conditions: read-out: Ba/F3 Tel-TrkA IC 50
T1 construct: dimerization domain of Tel (ETV6) transcription factor (fusion partner, human ETV6 P41212); expressed in transfected cells; host or cells: luciferase expressing Ba/F3 murine hematopoietic progenitor cells; the other entry of the earlier key: ETV6 (P41212, Transcription factor ETV6)
T1 sequence (P04629 510-796 limits assumed): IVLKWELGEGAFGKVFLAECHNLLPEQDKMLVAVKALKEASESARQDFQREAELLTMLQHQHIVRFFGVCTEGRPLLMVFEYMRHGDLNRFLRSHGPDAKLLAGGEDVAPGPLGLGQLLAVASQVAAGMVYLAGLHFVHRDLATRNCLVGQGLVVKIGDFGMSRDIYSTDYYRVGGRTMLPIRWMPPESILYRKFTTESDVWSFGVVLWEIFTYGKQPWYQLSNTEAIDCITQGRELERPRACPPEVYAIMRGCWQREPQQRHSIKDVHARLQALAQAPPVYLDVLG
Procedure: (§1) Test compounds were dissolved in DMSO (10 mM) and transferred into 1.4 mL flat bottom or V-shaped Matrix tubes carrying a unique 2D matrix chip by individual compound hubs. The numbers of these chips were distinctively linked to the individual compound identification numbers. The stock solutions were stored at −20° C. if not used immediately. For the test procedure the vials were defrosted and identified by a scanner whereby a working sheet is generated that guides the subsequent working steps.
(§2) Compound dilutions were made in 384 well plates. This format enabled the assay of maximally 28 individual test compounds at 12 concentrations (single points) including 2 reference compounds. The dilution protocol included the production of pre-dilution plates, master plates and assay plates: • Compound plates: 30 μL of individual compound (10 mM) DMSO solution including standard compound were transferred into columns 1 and 13 of a 384 well plate. 20 μL of DMSO were added to the rest of the wells and the compounds were serially diluted (1:3) by transferring 10 μL from a well in column 1 or 13 to the next well in column 2 or 14 respectively and successively with the help of a Minitrack robot. • Assay plates: Identical assay plates were then prepared by adding […] each of compound dilutions of the compound plates into 384-well “assay plates”. In the following the compounds were mixed with 50 μL of assays components (cells or enzyme) and tested for their inhibitory activity.
(§3) Compounds of Formula (I) were tested for their antiproliferative effect on Ba/F3 cells expressing either Tel-TrkA, Tel-TrkB or Tel-TrkC and an additional panel of 34 selected diverse kinases activated by fusion to the dimerizing partners Bcr or Tel (Abl, A1K, BMX, EphA3, EphB2, FGFR2, FGFR3, FGFR4, FGR, FLT1, FLT3, FLT4, FMS, IGF1R, InsR, JAK1, JAK2, JAK3, KDR, Kit, Lck, Lyn, MER, MET, PDGFRb, RET, RON, Ros-1, Src, Aurora, TIE2, TYK2, Tie1, ZAP70). The antiproliferative effect of these compounds on the different cell lines and on the non transformed cells were tested at 12 different concentrations of 3-fold serially diluted compounds in 384 well plates as described above (in media lacking IL3). The IC50 values of the compounds the different cell lines were determined from dose response curves.
(§4) The cell line used is the luciferase expressing Ba/F3 murine hematopoietic progenitor cell line transformed with human Tel-TrkA, Tel-TrkB or Tel-TrkC cDNAs (Ba/F3 EN A/B/C). These cells maintained in RPMI/10% fetal bovine serum (RPMI/FCS) supplemented with penicillin 50 mg/mL, streptomycin 50 mg/mL and L-glutamine […]. Untransformed Ba/F3 cells were similarly maintained with the addition 5 ng/ml of murine recombinant IL3. 50 μl of a Ba/F3 or Ba/F3 EN A/B/C cell suspension were plated in Greiner 384 well microplates (white)) at a density of 2000 cells per well. […] The cells were incubated for 48 hours at 37° C., 5% CO2. 25 μl of Bright Glo® (Promega) luciferase substrate is added to each well. The emited luminiscence is quantified using the ACQUEST™ luminescence system (Molecular Devices). IC50 values were calculated by linear regression analysis of the percentage inhibition of each compound at 12 concentrations.

[2] = target: T2, full length rTrkA and mNGF (Rattus norvegicus, UniProt P35739); experiment: Inhibition of proliferation of Ba/F3 cells co-expressing full length rTrkA and mNGF (BaF3/TrkA-NFG); format: cell-based; conditions: BaF3 TRKA-NGF cells, CTG readout
T2 construct: co-expressing full length rTrkA and mNGF; expressed in transfected cells; host or cells: Ba/F3 cells
T2 sequence (P35739 33-799): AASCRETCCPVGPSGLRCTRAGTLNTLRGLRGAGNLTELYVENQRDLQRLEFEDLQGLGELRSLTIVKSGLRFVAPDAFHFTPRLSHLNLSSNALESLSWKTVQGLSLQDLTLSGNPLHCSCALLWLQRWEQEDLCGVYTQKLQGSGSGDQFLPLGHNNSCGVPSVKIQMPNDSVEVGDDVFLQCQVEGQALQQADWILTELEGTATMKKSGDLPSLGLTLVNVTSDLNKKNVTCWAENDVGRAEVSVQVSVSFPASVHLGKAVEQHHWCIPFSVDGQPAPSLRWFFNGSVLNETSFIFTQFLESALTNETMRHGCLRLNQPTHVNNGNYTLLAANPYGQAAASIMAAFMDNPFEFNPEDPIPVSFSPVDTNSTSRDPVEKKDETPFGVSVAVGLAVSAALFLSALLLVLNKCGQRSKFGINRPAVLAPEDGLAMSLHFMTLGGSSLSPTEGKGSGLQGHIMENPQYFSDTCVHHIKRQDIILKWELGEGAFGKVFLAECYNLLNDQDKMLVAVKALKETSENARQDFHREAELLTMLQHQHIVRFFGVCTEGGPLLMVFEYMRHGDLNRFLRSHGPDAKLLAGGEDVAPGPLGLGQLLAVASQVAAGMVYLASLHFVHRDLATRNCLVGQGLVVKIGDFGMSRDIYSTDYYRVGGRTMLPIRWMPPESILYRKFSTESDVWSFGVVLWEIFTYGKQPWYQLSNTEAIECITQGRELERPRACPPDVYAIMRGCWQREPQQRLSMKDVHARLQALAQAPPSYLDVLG
T2 sequence (P01139 122-241 partner): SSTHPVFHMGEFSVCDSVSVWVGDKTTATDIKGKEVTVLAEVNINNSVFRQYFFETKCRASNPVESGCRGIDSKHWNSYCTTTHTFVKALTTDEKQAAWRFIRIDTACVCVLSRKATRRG

[3] = system: parental BaF3 cells; experiment: Proliferation of parental (untransformed) Ba/F3 cells maintained with IL3; format: cell-based, murine; conditions: Mus musculus, BaF3, parental Ba/F3 cells; read-out: Ba/F3 IC 50
Procedure: as §1, §2
(§5) The cell line used is the luciferase expressing Ba/F3 murine hematopoietic progenitor cell line transformed with human Tel-TrkA, Tel-TrkB or Tel-TrkC cDNAs (Ba/F3 EN A/B/C). These cells maintained in RPMI/10% fetal bovine serum (RPMI/FCS) supplemented with penicillin 50 mg/mL, streptomycin 50 mg/mL and L-glutamine […]. Untransformed Ba/F3 cells were similarly maintained with the addition 5 ng/ml of murine recombinant IL3. 50 μl of a Ba/F3 or Ba/F3 EN A/B/C cell suspension were plated in Greiner 384 well microplates (white)) at a density of 2000 cells per well. 50 nl of serially diluted test compound (10-0.0001 mM in DMSO solution) is added to each well. The cells were incubated for 48 hours at 37° C., 5% CO2. 25 μl of Bright Glo® (Promega) luciferase substrate is added to each well. The emited luminiscence is quantified using the ACQUEST™ luminescence system (Molecular Devices). IC50 values were calculated by linear regression analysis of the percentage inhibition of each compound at 12 concentrations.

[4] = system: KM12 luc; experiment: KM12 luc cell proliferation assay (Table 8); format: cell-based; conditions: KM12 luc cells; read-out: KM12 luc IC 50
[5] = target: T3, Tel-TrkC (Homo sapiens, UniProt Q16288); experiment: Inhibition of proliferation of Ba/F3 cells expressing Tel-TrkC (BaF3/Tel-TrkC); format: cell-based; conditions: read-out: Ba/F3 Tel-TrkC IC 50
T3 construct: The cells also express luciferase as the viability read-out; it is not fused to the kinase; P41212 (Transcription factor ETV6)
T3 sequence (Q16288 whole entry, the tested form may be a part): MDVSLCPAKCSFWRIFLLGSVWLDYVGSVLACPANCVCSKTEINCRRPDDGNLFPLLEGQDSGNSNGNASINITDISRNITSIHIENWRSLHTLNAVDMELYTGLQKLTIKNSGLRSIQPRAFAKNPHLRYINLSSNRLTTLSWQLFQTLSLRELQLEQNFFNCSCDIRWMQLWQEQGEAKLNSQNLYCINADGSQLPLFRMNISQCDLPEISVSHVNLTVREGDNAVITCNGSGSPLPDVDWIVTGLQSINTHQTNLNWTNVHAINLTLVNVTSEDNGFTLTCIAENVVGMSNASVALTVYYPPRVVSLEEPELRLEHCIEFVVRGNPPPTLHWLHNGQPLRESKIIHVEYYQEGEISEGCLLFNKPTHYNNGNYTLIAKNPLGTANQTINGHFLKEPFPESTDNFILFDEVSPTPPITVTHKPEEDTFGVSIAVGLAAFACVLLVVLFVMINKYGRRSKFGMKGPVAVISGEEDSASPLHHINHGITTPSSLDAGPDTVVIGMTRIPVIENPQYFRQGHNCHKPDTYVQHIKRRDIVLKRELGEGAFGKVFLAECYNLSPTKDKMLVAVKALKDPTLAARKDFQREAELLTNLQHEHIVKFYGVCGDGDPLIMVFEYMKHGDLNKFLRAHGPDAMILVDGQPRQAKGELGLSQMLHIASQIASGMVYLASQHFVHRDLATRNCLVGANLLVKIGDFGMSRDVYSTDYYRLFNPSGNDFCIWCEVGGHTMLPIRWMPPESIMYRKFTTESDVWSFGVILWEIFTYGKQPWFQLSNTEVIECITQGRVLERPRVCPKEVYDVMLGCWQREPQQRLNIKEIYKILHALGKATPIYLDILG
Procedure: as §1, §2, §3, §5

[6] = target: T4, Tel-TrkB (Homo sapiens, UniProt Q16620); experiment: Inhibition of proliferation of Ba/F3 cells expressing Tel-TrkB (BaF3/Tel-TrkB); format: cell-based; conditions: Ba/F3 Tel-TrkB cells; read-out: Ba/F3 Tel-TrkB IC 50
T4 construct: dimerization domain of Tel (ETV6) transcription factor (fusion partner, human ETV6 P41212); expressed in transfected cells; host or cells: luciferase expressing Ba/F3 murine hematopoietic progenitor cells; the other entry of the earlier key: ETV6 (P41212, Transcription factor ETV6)
T4 sequence (Q16620 538-822 limits assumed): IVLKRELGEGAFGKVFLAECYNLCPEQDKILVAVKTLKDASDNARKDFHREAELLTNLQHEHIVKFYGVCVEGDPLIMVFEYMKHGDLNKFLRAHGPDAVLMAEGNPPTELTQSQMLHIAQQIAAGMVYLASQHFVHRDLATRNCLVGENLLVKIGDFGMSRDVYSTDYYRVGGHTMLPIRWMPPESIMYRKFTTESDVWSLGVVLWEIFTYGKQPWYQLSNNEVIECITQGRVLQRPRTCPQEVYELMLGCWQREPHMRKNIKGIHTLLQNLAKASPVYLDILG
Procedure: as §1, §2, §3, §4

SMILES: N#Cc1ccc(-c2cnc3ccc(N4CCCC4c4cc(F)ccc4F)nn23)cc1N1CCC(N2CCOCC2)CC1 (stereo not drawn) [Table 5-Compound 13]
IC50 [1]: 3.5 nM
BaF3 TRKA-NGF CTG IC 50 [2]: 5.3 nM
IC50 [3]: 4840 nM
IC50 [4]: 7.5 nM
IC50 [5]: 1.7 nM
IC50 [6]: 35 nM

SMILES: N#Cc1cc(-c2cnc3ccc(N4CCCC4c4cc(F)ccc4F)nn23)ccc1N1CCOCC1 (stereo not drawn) [Table 5-Compound 2]
IC50 [1]: 26 nM
BaF3 TRKA-NGF CTG IC 50 [2]: 49 nM
IC50 [3]: 6170 nM
IC50 [4]: 29 nM
IC50 [5]: 8.4 nM
IC50 [6]: 15 nM

SMILES: N#Cc1cccc(-c2cnc3ccc(N4CCC(=O)N4c4cccc(F)c4)nn23)c1 [Table 3-Compound 34]
IC50 [1]: 1200 nM
BaF3 TRKA-NGF CTG IC 50 [2]: 500 nM
IC50 [3]: > 10000 nM
IC50 [4]: 10 nM
IC50 [5]: 130 nM
IC50 [6]: 400 nM

SMILES: C[C@H]1CN(c2ccc3ncc(-c4cccc(C#N)c4)n3n2)[C@H](c2ccccc2)C1(F)F [Table 3-Compound 52]
IC50 [1]: 12 nM
BaF3 TRKA-NGF CTG IC 50 [2]: 22 nM
IC50 [3]: > 10000 nM
IC50 [4]: 6.5 nM
IC50 [5]: 4 nM
IC50 [6]: 7.7 nM

SMILES: CN(C)C(=O)CN1CCN(c2ccc(-c3cnc4ccc(N5CCOCC5c5cccc(F)c5)nn34)cc2C#N)CC1 (stereo not drawn) [Table 2-Compound 8]
IC50 [1]: 1.6 nM
BaF3 TRKA-NGF CTG IC 50 [2]: 29 nM
IC50 [3]: > 10000 nM
IC50 [4]: 5.2 nM
IC50 [6]: 2.2 nM

More lines, main results first:

IC50 [1]: 2310 nM
BaF3 TRKA-NGF CTG IC 50 [2]: 1730 nM
IC50 [5]: 240 nM
IC50 [6]: 470 nM
SMILES: Cc1ccc(C)c(C2CCCN2c2ccc3ncc(-c4cccc(C(=O)O)n4)n3n2)c1 (stereo not drawn) [Table 3-Compound 1]
IC50 [3]: > 10000 nM
IC50 [4]: 190 nM

IC50 [1]: 200 nM
BaF3 TRKA-NGF CTG IC 50 [2]: 180 nM
IC50 [5]: 40 nM
IC50 [6]: 100 nM
SMILES: Fc1cccc(C2CCCN2c2ccc3ncc(-c4cncc(Cl)n4)n3n2)c1 (stereo not drawn) [Table 3-Compound 10]
IC50 [3]: > 10000 nM
IC50 [4]: 94 nM

IC50 [1]: 13 nM
BaF3 TRKA-NGF CTG IC 50 [2]: 20 nM
IC50 [6]: 15 nM
SMILES: CC(F)C(=O)N(C)C1CCN(c2cccc(-c3cnc4ccc(N5CCCC5c5cccc(F)c5)nn34)n2)C1 (stereo not drawn) [Table 7-Compound 201]
IC50 [3]: > 11000 nM
IC50 [4]: 10 nM

IC50 [1]: 44 nM
BaF3 TRKA-NGF CTG IC 50 [2]: 108 nM
IC50 [5]: 14 nM
IC50 [6]: 49 nM
SMILES: Fc1cccc(C2CCCCN2c2ccc3ncc(-c4ccc(N5CCOCC5)nc4)n3n2)c1 (stereo not drawn) [Table 3-Compound 58]
IC50 [3]: 7650 nM
IC50 [4]: 34 nM

IC50 [1]: 13 nM
BaF3 TRKA-NGF CTG IC 50 [2]: 20 nM
IC50 [5]: 1.4 nM
IC50 [6]: 10 nM
SMILES: Fc1cccc(C2CCCN2c2ccc3ncc(-c4ccc5[nH]ccc5c4)n3n2)c1 (stereo not drawn) [Table 3-Compound 18]
IC50 [3]: 7230 nM
IC50 [4]: 24 nM

IC50 [1]: 65 nM
BaF3 TRKA-NGF CTG IC 50 [2]: 87 nM
IC50 [6]: 52 nM
SMILES: O=C(c1cccc(-c2cnc3ccc(N4CCCC4c4cccc(F)c4)nn23)n1)N1CCC(O)CC1 (stereo not drawn) [Table 7-Compound 158]
IC50 [3]: > 11000 nM
IC50 [4]: 19 nM
